The text below walks through data of patent US8268814B2, “Substituted sulfonamide compounds” (Gruenenthal GmbH, priority 2008, dated 2012).

For assay [1], the target named is T1, B1R receptor of the rat (rB1R) (Rattus norvegicus, UniProt P97583).
T1 construct: expressed in transfected cells; host or cells: CHO K1 cells (Chinese hamster ovary), stably transfected
T1 sequence (P97583 1-337): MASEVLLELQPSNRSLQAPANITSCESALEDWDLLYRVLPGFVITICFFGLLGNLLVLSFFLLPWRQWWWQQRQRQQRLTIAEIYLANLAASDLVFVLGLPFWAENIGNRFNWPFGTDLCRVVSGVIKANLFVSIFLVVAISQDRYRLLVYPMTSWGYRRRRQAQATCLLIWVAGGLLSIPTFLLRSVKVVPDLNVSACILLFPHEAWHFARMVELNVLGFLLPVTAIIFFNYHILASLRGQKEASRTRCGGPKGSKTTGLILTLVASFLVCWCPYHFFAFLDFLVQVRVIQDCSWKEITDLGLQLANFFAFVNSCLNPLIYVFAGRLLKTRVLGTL
In words: Functional FLIPR Ca2+ assay on the bradykinin 1 receptor, rat (rB1R CHO K1 cells). Type of assay: cell-based. Particulars: test substance 10 μM; CHO K1 cells transfected with rat B1R gene; agonist Des-Arg9-bradykinin at EC80; % inhibition compared with maximum achievable inhibition; read-out: B1R antagonism, rat [10 μM] % inhibition. In short, it runs like this:
(§1)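 Stably transfected CHO K1 cells expressing human or rat B1R, Fluo-4-loaded, Ca2+ influx read by FLIPR (peak fluorescence). Compounds (10 μM for % activation) preincubated 10-20 min, then EC80 agonist added: Lys-Des-Arg9-bradykinin for human, Des-Arg9-bradykinin for rat; % inhibition versus maximal inhibition, IC50 from concentration series.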

Assay [2] has as its target T2, human B1R receptor (hB1R) (Homo sapiens, UniProt P46663).
T2 construct: expressed in transfected cells; host or cells: CHO K1 cells (Chinese hamster ovary), stably transfected
T2 sequence (P46663 1-353): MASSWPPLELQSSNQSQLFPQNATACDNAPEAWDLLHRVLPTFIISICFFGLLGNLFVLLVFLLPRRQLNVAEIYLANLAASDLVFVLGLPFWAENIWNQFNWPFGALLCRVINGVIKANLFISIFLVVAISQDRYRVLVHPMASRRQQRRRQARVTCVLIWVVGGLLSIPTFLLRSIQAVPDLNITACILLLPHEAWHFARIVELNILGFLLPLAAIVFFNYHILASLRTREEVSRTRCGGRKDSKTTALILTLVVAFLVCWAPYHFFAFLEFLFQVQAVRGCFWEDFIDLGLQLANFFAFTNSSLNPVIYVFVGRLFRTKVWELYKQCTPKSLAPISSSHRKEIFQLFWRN
In words: Functional FLIPR Ca2+ assay on the bradykinin 1 receptor, human (hB1R CHO K1 cells). Type of assay: cell-based. The following applies: test substance 10 μM; CHO K1 cells transfected with human B1R gene; agonist Lys-Des-Arg9-bradykinin at EC80; % inhibition compared with maximum achievable inhibition; read-out: B1R antagonism, human (10 μM] % inhibition. A digest of the protocol:
as §1

As a reminder, the inhibition is the drop in the measured response relative to a control, in per cent. Turning to `O=C(CC(NS(=O)(=O)c1ccc2ccccc2c1)c1ccccc1)N1CCc2nc(Cc3ccncc3)sc2C1` (racemic) [Example 42, N-(3-oxo-1-phenyl-3-(2-(pyridin-4-ylmethyl)-6,7-dihydrothiazolo[5,4-c]pyridin-5(4H)-yl)propyl)naphthalene-2-sulfonamide], the inhibition at 10 µM in assay [1] is 79%; in assay [2], 14%.

Regarding `COc1cc(C)c(S(=O)(=O)N2CCCCC2CCC(=O)N2CCc3nc(-c4ccncc4)sc3C2)c(C)c1` (centres unmarked) [Example 52, 3-(1-(4-methoxy-2,6-dimethylphenylsulfonyl)piperidin-2-yl)-1-(2-(pyridin-4-yl)-6,7-dihydrothiazolo[5,4-c]pyridin-5(4H)-yl)propan-1-one], the figures for the inhibition at 10 µM in assay [1] and in assay [2] were 95% and 76%, respectively.

As to `COc1cc(C)c(S(=O)(=O)N2CCCCC2CCC(=O)N2CCc3nc(Cc4ccncc4)sc3C2)c(C)c1` (centres unmarked) [Example 41, 3-(1-(4-methoxy-2,6-dimethylphenylsulfonyl)piperidin-2-yl)-1-(2-(pyridin-4-ylmethyl)-6,7-dihydrothiazolo[5,4-c]pyridin-5(4H)-yl)propan-1-one], the inhibition at 10 µM in assay [1] was found to be 99%; in assay [2], 64%.

With `O=C(CC1CCCCN1S(=O)(=O)c1cccc(C(F)(F)F)c1)N1CCc2sccc2C1c1ccc(F)cc1` (centres unmarked) [Example 19, 1-(4-(4-fluorophenyl)-6,7-dihydrothieno[3,2-c]pyridin-5(4H)-yl)-2-(1-(3-(trifluoromethyl)phenylsulfonyl)piperidin-2-yl)ethanone], the inhibition at 10 µM was determined as 83% in assay [1] and 35% in assay [2].

Turning to `Cc1ccc(C2c3ccsc3CCN2C(=O)C[C@@H](NS(=O)(=O)c2ccc3ccccc3c2)c2ccccc2)cc1` (stereo partly drawn) [Example 20, N-((1R)-3-oxo-1-phenyl-3-(4-p-tolyl-6,7-dihydrothieno[3,2-c]pyridin-5(4H)-yl)propyl)naphthalene-2-sulfonamide], the inhibition at 10 µM in assay [1] came to 96%; in assay [2] it was 11%.

`O=C(C[C@@H](NS(=O)(=O)c1ccc2ccccc2c1)c1ccccc1)N1CCc2sc(CN3CCCCC3)cc2C1` [Example 26, (R)—N-(3-Oxo-1-phenyl-3-(2-(piperidin-1-ylmethyl)-6,7-dihydrothieno[3,2-c]pyridin-5(4H)-yl)propyl)naphthalene-2-sulfonamide]: the inhibition at 10 µM in assay [1] worked out at 101%; in assay [2], 97%.

For `Cc1cccc(Cl)c1S(=O)(=O)N(CCOCC(=O)N1CCc2sc(CN3CCCCC3)cc2C1)C1CC1` [Example 60, 2-chloro-N-cyclopropyl-6-methyl-N-[2-[2-oxo-2-[2-(piperidin-1-yl-methyl)-4,5,6,7-tetrahydro-thieno[3,2-c]pyridin-5-yl]-ethoxy]-ethyl]-benzenesulfonic acid amide], the inhibition at 10 µM in assay [1] is 106%; in assay [2] it was 100%.

On to `Cc1cccc(Cl)c1S(=O)(=O)N(CCOCC(=O)N1CCc2sc(CN3CCC3)cc2C1)C1CC1` [Example 56, N-[2-[2-[2-(Azetidin-1-yl-methyl)-4,5,6,7-tetrahydro-thieno[3,2-c]pyridin-5-yl]-2-oxo-ethoxy]-ethyl]-2-chloro-N-cyclopropyl-6-methyl-benzenesulfonic acid amide], for which the figures for the inhibition at 10 µM in assay [1] and in assay [2] were 105% and 100%, respectively.

As for `COc1cc(C)c(S(=O)(=O)N(C)CCOCC(=O)N2CCc3nc(-c4ccncc4)sc3C2)c(C)c1` [Example 49, 4-methoxy-N,2,6-trimethyl-N-(2-(2-oxo-2-(2-(pyridin-4-yl)-6,7-dihydrothiazolo[5,4-c]pyridin-5(4H)-yl)ethoxy)ethyl)benzenesulfonamide], the inhibition at 10 µM in assay [1] was 95%; in assay [2] it was 99%.

On to `COc1cc(C)c(S(=O)(=O)N(C)CCOCC(=O)N2CCc3nc(Cc4ccncc4)sc3C2)c(C)c1` [Example 39, 4-methoxy-N,2,6-trimethyl-N-(2-(2-oxo-2-(2-(pyridin-4-ylmethyl)-6,7-dihydrothiazolo[5,4-c]pyridin-5(4H)-yl)ethoxy)ethyl)benzenesulfonamide], for which the values for the inhibition at 10 µM in assay [1] and in assay [2] were 99% and 100%, respectively.
